# Assays:
# Assay in all cases: relative viability (nuclei count vs DMSO), 5 days (fraction); higher = more cells survive
# [1] = test system: NCI-H1793
# Method in brief: (§1)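 Lung cancer cell lines in 1536-well plates got either a single drug or a fixed anchor-drug dose together with five library-drug doses (not always all listed) in √10 steps, by pin tool, on the day after seeding. Nuclei were counted after 5 days, and relative viability is the treated-to-vehicle ratio of nuclei counts. Values are medians of duplicate plates.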
# [2] = test system: NCI-H1437
# Method in brief: as §1
# [3] = test system: 201T
# Method in brief: as §1
# [4] = test system: LXF-289
# Method in brief: as §1
# [5] = test system: NCI-H647
# Method in brief: as §1
# [6] = test system: LCLC-103H
# Method in brief: as §1
# [7] = test system: NCI-H1944
# Method in brief: as §1
# [8] = test system: NCI-H1395
# Method in brief: as §1
# [9] = test system: NCI-H2087
# Method in brief: as §1
# [10] = test system: RERF-LC-KJ
# Method in brief: as §1
# [11] = test system: NCI-H2228
# Method in brief: as §1
# [12] = test system: CAL-12T
# Method in brief: as §1
# [13] = test system: NCI-H1650
# Method in brief: as §1
# [14] = test system: NCI-H322M
# Method in brief: as §1
# [15] = test system: SK-LU-1
# Method in brief: as §1
# [16] = test system: NCI-H2405
# Method in brief: as §1
# [17] = test system: HCC-827
# Method in brief: as §1
# [18] = test system: LCLC-97TM1
# Method in brief: as §1
# [19] = test system: NCI-H3122
# Method in brief: as §1
# [20] = test system: NCI-H727
# Method in brief: as §1
# [21] = test system: BEN
# Method in brief: as §1
smiles,measurement,setting,value
COc1nc(C)cnc1NS(=O)(=O)c1cccnc1-c1ccc(-c2nnco2)cc1 [Zibotentan] + O=C(CCCCCCC(=O)Nc1ccccc1)NO [Vorinostat] (partner 1 µM),relative viability,[1]; first compound 0.08 µM,0.673
same,relative viability,[1]; first compound 0.253 µM,0.673
same,relative viability,[1]; first compound 0.8 µM,0.925
same,relative viability,[1]; first compound 2.53 µM,0.973
same,relative viability,[2]; first compound 0.08 µM,1.05
same,relative viability,[2]; first compound 0.253 µM,0.823
same,relative viability,[2]; first compound 0.8 µM,0.834
same,relative viability,[2]; first compound 2.53 µM,0.828
same,relative viability,[3]; first compound 0.08 µM,0.96
same,relative viability,[3]; first compound 0.253 µM,0.972
same,relative viability,[3]; first compound 0.8 µM,0.952
same,relative viability,[3]; first compound 2.53 µM,1
same,relative viability,[4]; first compound 0.08 µM,0.769
same,relative viability,[4]; first compound 0.253 µM,0.713
same,relative viability,[4]; first compound 0.8 µM,0.766
same,relative viability,[4]; first compound 2.53 µM,0.746
same,relative viability,[5]; first compound 0.08 µM,0.649
same,relative viability,[5]; first compound 0.253 µM,0.381
same,relative viability,[5]; first compound 0.8 µM,0.718
same,relative viability,[5]; first compound 2.53 µM,0.698
same,relative viability,[6]; first compound 0.08 µM,0.801
same,relative viability,[6]; first compound 0.253 µM,0.842
same,relative viability,[6]; first compound 0.8 µM,0.722
same,relative viability,[6]; first compound 2.53 µM,0.839
same,relative viability,[7]; first compound 0.08 µM,0.674
same,relative viability,[7]; first compound 0.253 µM,0.533
same,relative viability,[7]; first compound 0.8 µM,0.508
same,relative viability,[7]; first compound 2.53 µM,0.631
same,relative viability,[8]; first compound 0.08 µM,0.809
same,relative viability,[8]; first compound 0.253 µM,0.502
same,relative viability,[8]; first compound 0.8 µM,0.698
same,relative viability,[8]; first compound 2.53 µM,0.951
same,relative viability,[9]; first compound 0.08 µM,0.719
same,relative viability,[9]; first compound 0.253 µM,0.679
same,relative viability,[9]; first compound 0.8 µM,0.752
same,relative viability,[9]; first compound 2.53 µM,0.732
same,relative viability,[10]; first compound 0.08 µM,0.847
same,relative viability,[10]; first compound 0.253 µM,0.541
same,relative viability,[10]; first compound 0.8 µM,0.74
same,relative viability,[10]; first compound 2.53 µM,0.679
same,relative viability,[11]; first compound 0.08 µM,0.805
same,relative viability,[11]; first compound 0.253 µM,0.719
same,relative viability,[11]; first compound 0.8 µM,0.613
same,relative viability,[11]; first compound 2.53 µM,0.92
same,relative viability,[12]; first compound 0.08 µM,0.887
same,relative viability,[12]; first compound 0.253 µM,0.543
same,relative viability,[12]; first compound 0.8 µM,0.742
same,relative viability,[12]; first compound 2.53 µM,0.714
same,relative viability,[13]; first compound 0.08 µM,0.528
same,relative viability,[13]; first compound 0.8 µM,0.61
same,relative viability,[13]; first compound 2.53 µM,0.646
same,relative viability,[14]; first compound 0.08 µM,1.03
same,relative viability,[14]; first compound 0.253 µM,0.748
same,relative viability,[14]; first compound 0.8 µM,0.895
same,relative viability,[14]; first compound 2.53 µM,0.93
same,relative viability,[15]; first compound 0.08 µM,0.697
same,relative viability,[15]; first compound 0.253 µM,0.726
same,relative viability,[15]; first compound 0.8 µM,0.819
same,relative viability,[15]; first compound 2.53 µM,0.83
same,relative viability,[16]; first compound 0.08 µM,1.25
same,relative viability,[16]; first compound 0.253 µM,0.829
same,relative viability,[16]; first compound 0.8 µM,0.957
same,relative viability,[16]; first compound 2.53 µM,1.12
same,relative viability,[17]; first compound 0.08 µM,0.958
same,relative viability,[17]; first compound 0.253 µM,0.771
same,relative viability,[17]; first compound 0.8 µM,0.811
same,relative viability,[17]; first compound 2.53 µM,0.785
same,relative viability,[18]; first compound 0.08 µM,0.822
same,relative viability,[18]; first compound 0.253 µM,0.831
same,relative viability,[18]; first compound 0.8 µM,0.697
same,relative viability,[18]; first compound 2.53 µM,0.755
same,relative viability,[19]; first compound 0.08 µM,1.05
same,relative viability,[19]; first compound 0.253 µM,1.03
same,relative viability,[19]; first compound 0.8 µM,1.02
same,relative viability,[19]; first compound 2.53 µM,1.02
same,relative viability,[20]; first compound 0.08 µM,1.19
same,relative viability,[20]; first compound 0.253 µM,1.24
same,relative viability,[20]; first compound 0.8 µM,1.07
same,relative viability,[20]; first compound 2.53 µM,1.19
same,relative viability,[21]; first compound 0.08 µM,0.571
same,relative viability,[21]; first compound 0.253 µM,0.556
same,relative viability,[21]; first compound 0.8 µM,0.568
same,relative viability,[21]; first compound 2.53 µM,0.517

# Source: the supplement of paper PMC10307832
